In patent US20250352532A1, “REDUCED N[…] IN PHARMACEUTICAL COMPOSITIONS COMPRISING METHYLPHENIDATE” (MEDICE Arzneimittel Pütter GmbH & Co. KG, priority 2024, published 2025):

Assay: N-nitrosomethylphenidate content of methylphenidate compositions by UHPLC-MS/MS
Type: physicochemical
Conditions: verbal assessment of Table 2; antioxidant/stabilizer in methylphenidate composition
Method: To determine the effect of various antioxidants or stabilizers on the prevention of nitrosamine formation in compositions containing methylphenidate, different pharmaceutical compositions were prepared as described in Example 1 above, except that antioxidants/stabilizers other than ascorbyl palmitate were used. However, for better comparability, the molar ratio of methylphenidate: antioxidant/stabilizer was kept constant at 1:3 in all compositions (except for the composition with no antioxidant/stabilizer). Accordingly, the compositions of Example 1 and Comparative Examples 2 to 7 differ only in the type of antioxidant/stabilizer and are otherwise composed exactly as shown in Table 1 above for Example 1. The content of N-nitrosomethylphenidate in the compositions was determined by UHPLC-MS/MS. Accordingly, the term “nitrosamine” in the present context refers to “N-nitrosomethylphenidate”. For sample preparation, the compositions were ground and the resulting powders were extracted with methanol. The following measurement conditions were used for the N-nitrosomethylphenidate determination: • LC column: Waters BEH Shield RP18 (100x2.1 mm, 1.7 um) • Flow rate: 0.4 mL/min • Column temperature: 50° C. . . . • Mobile phase: Phase A: Water with 0.1% by volume formic acid • Phase B: Acetonitrile • Gradient conditions: […]

CCCCCCCCCCCCCCCC(=O)OC[C@H](O)[C@H]1OC(=O)C(O)=C1O [ascorbyl palmitate]
effectiveness in reducing nitrosamine formation in compositions with methylphenidate: by far the most effective
